ChEMBL document CHEMBL1201862, “PubChem BioAssay data set” (2004)
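Interpolation was linear, between the two tested concentrations surrounding the appropriate level; five concentrations were tested over 48 hours in 96-well plates. GI50 marks 50% less growth.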 Calls of active or inactive are those of the source. Cut-off read from the data, not from the text of the source: active = GI50 up to about 1.1 µM and inactive = higher.

Columns and labels:
Assay in all cases: inhibition of tumour cell growth, NCI panel, 48 h
TK-10 = test system: TK-10
HT-29 = test system: HT-29
NCI-H522 = test system: NCI-H522
NCI-H460 = test system: NCI-H460
UACC-62 = test system: UACC-62
COLO 205 = test system: COLO 205
SF-539 = test system: SF-539
SF-295 = test system: SF-295
HOP-62 = test system: HOP-62
SF-268 = test system: SF-268
RPMI-8226 = test system: RPMI-8226
UACC-257 = test system: UACC-257
K562 = test system: K562
MDA-MB-435 = test system: MDA-MB-435
786-0 = test system: 786-0
HL-60 = test system: HL-60
CAKI-1 = test system: CAKI-1
EKVX = test system: EKVX
RXF 393 = test system: RXF 393
SNB-19 = test system: SNB-19
Hs-578T = test system: Hs-578T
DU-145 = test system: DU-145
HCT-116 = test system: HCT-116
SN12C = test system: SN12C
Malme-3M = test system: Malme-3M
OVCAR-5 = test system: OVCAR-5
A549 = test system: A549
SK-MEL-28 = test system: SK-MEL-28
BT-549 = test system: BT-549
M14 = test system: M14
SR = test system: SR
MCF7 = test system: MCF7
OVCAR-4 = test system: OVCAR-4
PC-3 = test system: PC-3
LOX IMVI = test system: LOX IMVI
SK-OV-3 = test system: SK-OV-3
CCRF-CEM = test system: CCRF-CEM
ACHN = test system: ACHN
KM12 = test system: KM12
NCI-H226 = test system: NCI-H226
HCT-15 = test system: HCT-15
NCI-H23 = test system: NCI-H23
SW-620 = test system: SW-620
NCI/ADR-RES = test system: NCI/ADR-RES
IGROV-1 = test system: IGROV-1
MOLT-4 = test system: MOLT-4
SK-MEL-5 = test system: SK-MEL-5
SNB-75 = test system: SNB-75
SK-MEL-2 = test system: SK-MEL-2
OVCAR-8 = test system: OVCAR-8
OVCAR-3 = test system: OVCAR-3
MDA-MB-231 = test system: MDA-MB-231
U-251 = test system: U-251
T47D = test system: T47D
HCC 2998 = test system: HCC 2998
HOP-92 = test system: HOP-92
UO-31 = test system: UO-31
MDA-N = test system: MDA-N

**Q.** Which GI50 (TK-10) does the source give for `C=C(C)C(O)C(O)C[C@@H](C)C1CC[C@]23C[C@]12CCC1[C@@]2(C)CCC(OC(C)=O)C(C)(C)C2CC(OC2OC(CO)C(O)C(O)C2O)[C@]13C` (stereo partly drawn) here?
**A.** 20.8 µM (inactive)

**Q.** What about the GI50 (HT-29) of the same molecule?
**A.** 18.2 µM (inactive)

**Q.** And the GI50 (NCI-H522)?
**A.** 17 µM (inactive)

**Q.** What about the GI50 (NCI-H460) of the same molecule?
**A.** 17.9 µM (inactive)

**Q.** And the GI50 (UACC-62)?
**A.** 17.7 µM (inactive)

**Q.** What about the GI50 (COLO 205) of the same molecule?
**A.** 17.6 µM (inactive)

**Q.** And the GI50 (SF-539)?
**A.** 14.6 µM (inactive)

**Q.** And the GI50 (SF-295)?
**A.** 18.9 µM (inactive)

**Q.** What about the GI50 (HOP-62) of the same molecule?
**A.** 16.7 µM (inactive)

**Q.** And the GI50 (SF-268)?
**A.** 18.3 µM (inactive)

**Q.** And the GI50 (RPMI-8226)?
**A.** 21.5 µM (inactive)

**Q.** What about the GI50 (UACC-257) of the same molecule?
**A.** 17 µM (inactive)

**Q.** And the GI50 (K562)?
**A.** 20.1 µM (inactive)

**Q.** And the GI50 (MDA-MB-435)?
**A.** 17.5 µM (inactive)

**Q.** And the GI50 (786-0)?
**A.** 19.1 µM (inactive)

**Q.** What about the GI50 (HL-60) of the same molecule?
**A.** 18.1 µM (inactive)

**Q.** What about the GI50 (CAKI-1) of the same molecule?
**A.** > 100 µM (inactive)

**Q.** What about the GI50 (EKVX) of the same molecule?
**A.** 42.2 µM (inactive)

**Q.** What about the GI50 (RXF 393) of the same molecule?
**A.** 15.4 µM (inactive)

**Q.** And the GI50 (SNB-19)?
**A.** 20 µM (inactive)

**Q.** And the GI50 (Hs-578T)?
**A.** 21 µM (inactive)

**Q.** And the GI50 (DU-145)?
**A.** 21.2 µM (inactive)

**Q.** And the GI50 (HCT-116)?
**A.** 15.9 µM (inactive)

**Q.** What about the GI50 (SN12C) of the same molecule?
**A.** 16.8 µM (inactive)

**Q.** And the GI50 (Malme-3M)?
**A.** 17.5 µM (inactive)

**Q.** And the GI50 (OVCAR-5)?
**A.** 20.9 µM (inactive)

**Q.** What about the GI50 (A549) of the same molecule?
**A.** 50 µM (inactive)

**Q.** What about the GI50 (SK-MEL-28) of the same molecule?
**A.** 22.5 µM (inactive)

**Q.** What about the GI50 (BT-549) of the same molecule?
**A.** 14.5 µM (inactive)

**Q.** And the GI50 (M14)?
**A.** 15.2 µM (inactive)

**Q.** What about the GI50 (SR) of the same molecule?
**A.** 18.7 µM (inactive)

**Q.** What about the GI50 (MCF7) of the same molecule?
**A.** 17 µM (inactive)

**Q.** And the GI50 (OVCAR-4)?
**A.** 16 µM (inactive)

**Q.** And the GI50 (PC-3)?
**A.** 18.4 µM (inactive)

**Q.** What about the GI50 (LOX IMVI) of the same molecule?
**A.** 17.6 µM (inactive)

**Q.** What about the GI50 (SK-OV-3) of the same molecule?
**A.** 20.9 µM (inactive)

**Q.** And the GI50 (CCRF-CEM)?
**A.** 14.2 µM (inactive)

**Q.** What about the GI50 (ACHN) of the same molecule?
**A.** 31.6 µM (inactive)

**Q.** What about the GI50 (KM12) of the same molecule?
**A.** 17.7 µM (inactive)

**Q.** And the GI50 (NCI-H226)?
**A.** 20.6 µM (inactive)

**Q.** And the GI50 (HCT-15)?
**A.** 40.9 µM

**Q.** What about the GI50 (NCI-H23) of the same molecule?
**A.** 19.2 µM (inactive)

**Q.** And the GI50 (SW-620)?
**A.** 16.7 µM (inactive)

**Q.** What about the GI50 (NCI/ADR-RES) of the same molecule?
**A.** > 100 µM (inactive)

**Q.** What about the GI50 (IGROV-1) of the same molecule?
**A.** 15.3 µM (inactive)

**Q.** And the GI50 (MOLT-4)?
**A.** 18.5 µM (inactive)

**Q.** And the GI50 (SK-MEL-5)?
**A.** 18.9 µM (inactive)

**Q.** And the GI50 (SNB-75)?
**A.** 19.6 µM (inactive)

**Q.** What about the GI50 (SK-MEL-2) of the same molecule?
**A.** 16.6 µM (inactive)

**Q.** What about the GI50 (OVCAR-8) of the same molecule?
**A.** 19.5 µM (inactive)

**Q.** And the GI50 (OVCAR-3)?
**A.** 17.6 µM (inactive)

**Q.** What about the GI50 (MDA-MB-231) of the same molecule?
**A.** 15 µM (inactive)

**Q.** And the GI50 (U-251)?
**A.** 15.7 µM (inactive)

**Q.** What about the GI50 (T47D) of the same molecule?
**A.** 17.4 µM (inactive)

**Q.** What about the GI50 (HCC 2998) of the same molecule?
**A.** 15.7 µM (inactive)

**Q.** What about the GI50 (HOP-92) of the same molecule?
**A.** 12.9 µM (inactive)

**Q.** What about the GI50 (UO-31) of the same molecule?
**A.** > 100 µM (inactive)

**Q.** What about the GI50 (MDA-N) of the same molecule?
**A.** 17.3 µM (inactive)
